Assay results taken from US20010044463A1, “Methods for controlling gram negative bacteria in mammals” (priority 1997, published 2001).
Values after ≈ are worked out from the molar mass of the structure shown.

How the values were obtained:
Staph ATCC 14775 = assay: Blood agar plate growth inhibition, control organism; assay type: cell-based
Method: (§1) Monensin (Sigma Cat. No. M-5273) was dissolved in 100% absolute ethanol (AAPER Alcohol and Chemical Co.) at a concentration of 20 mg/ml. Subsequent dilutions were made in ethanol immediately prior to use. Nigericin (Sigma Cat. No. N-7143) was dissolved in DMSO at 2 mg/ml. Subsequent dilutions were made in BHI medium (Brain heart infusion broth, Difco #0037-07-0) immediately prior to use.
(§2) Blood agar base (BAB) was prepared containing 1.5% agar and autoclaved. 20 ml samples of autoclaved BAB were poured into 50 mL tubes and placed in a 56° C. water bath.
(§3) 100 μl of a drug (final concentration equivalent to 1:200 of original concentration) and 1.2 ml of sheep blood (Colorado Senun Company # CS-1112) (blood diluted in a 1:1 buffer providing a 3% concentration of blood per 20 ml medium sample) were added to 20 ml sample of media and mixed. The mixed media preparation was poured into a petri dished and allowed to solidify.
Prior to inoculation of petri plates, bacteria or cultures were examined for morphology under a phase microscope to confirm motility and physical characteristics, e.g., spiral shaped. The organisms were washed off the plate into PBS (Phosphate buffered saline) (80.0 g NaCl, 2.0 g KCl, 2.4 g KH2PO4 11.5 g Na2HPO4 or 24.4 g Na2HPO4/2H2O per 1 liter deionized water, pH 7.2, sterilized by autoclaving) and diluted into BHI at a concentration of 10^8/ml (O.D. of 0.3 units diluted 1:30). Ten microliters of solution containing 10^6 organisms were spread onto a petri plate and grown under microaerophilic conditions for 3 days unless specified. […]
(§4) Inhibition of growth was determined by the amount of colonies present within the petri plate. The following factors were used for growth inhibition: ±=0-20 colonies, +=20-50 colonies, ++=50-200 colonies and +++=200+ colonies.

H. pylori ATCC 43504 = assay: Minimum Inhibitory Concentration (MIC) blood agar plate growth inhibition; assay type: cell-based, Helicobacter pylori
Method: Subsequent dilutions were made in ethanol immediately prior to use. […] Subsequent dilutions were made in BHI medium (Brain heart infusion broth, Difco #0037-07-0) immediately prior to use.
as §2
The mixed media preparation was poured into a petri dished and allowed to solidify.
(§5) Prior to inoculation of petri plates, bacteria or cultures were examined for morphology under a phase microscope to confirm motility and physical characteristics, e.g., spiral shaped. The organisms were washed off the plate into PBS (Phosphate buffered saline) (80.0 g NaCl, 2.0 g KCl, 2.4 g KH2PO4 11.5 g Na2HPO4 or 24.4 g Na2HPO4/2H2O per 1 liter deionized water, pH 7.2, sterilized by autoclaving) and diluted into BHI at a concentration of 10^8/ml (O.D. of 0.3 units diluted 1:30). Ten microliters of solution containing 10^6 organisms were spread onto a petri plate and grown under microaerophilic conditions for 3 days unless specified. Control organisms were grown under microaerophilic conditions.
as §4

[1] = test system: H. pylori (urease negative) (Wild strain of ATCC 43504); assay: as above; assay type: cell-based, Helicobacter pylori; conditions: Table III
Method: as §1, §2, §3, §5, §4

[2] = test system: H. pylori (urease positive) ATCC Number 51652; assay: as above; assay type: cell-based, Helicobacter pylori; conditions: Table XVII, Blood agar base + 3% sheep blood
Method: as §1, §2, §3, §5, §4

[3] = final drug concentration 0.1 ng/ml
[4] = final drug concentration 10 ng/ml
[5] = final drug concentration 100 ng/ml
[6] = final drug concentration 1 μg/ml
[7] = final drug concentration 10 μg/ml

CO[C@@H]1C[C@@H](C[C@H]2CC[C@H](C)[C@H]([C@@H](C)C(=O)O)O2)O[C@]2(O[C@](C)([C@H]3CC[C@@](C)([C@@H]4O[C@@H]([C@H]5O[C@@](O)(CO)[C@H](C)C[C@@H]5C)C[C@@H]4C)O3)C[C@H]2C)[C@@H]1C [Nigericin, nigericin]
growth (amount of colonies present within the petri plate) (Staph ATCC 14775; Table XIV, Non-microaerophilic conditions, final drug concentration 0.1 ng/ml): (+++) (+++=200+ colonies) | growth (amount of colonies present within the petri plate) (Staph ATCC 14775; Table XIV, Non-microaerophilic conditions, final drug concentration 1 ng/ml): (+++) (+++=200+ colonies) | growth (amount of colonies present within the petri plate) (Staph ATCC 14775; Table XIV, Non-microaerophilic conditions, final drug concentration 10 ng/ml): (+++) (+++=200+ colonies) | growth (amount of colonies present within the petri plate) (Staph ATCC 14775; Table XIV, Non-microaerophilic conditions, final drug concentration 100 ng/ml): (+++***) (+++=200+ colonies) | growth (amount of colonies present within the petri plate) (Staph ATCC 14775; Table XIV, Non-microaerophilic conditions, final drug concentration 1 μg/ml): No growth | growth (amount of colonies present within the petri plate) (Staph ATCC 14775; Table XIV, Non-microaerophilic conditions, final drug concentration 10 μg/ml): No growth | growth (amount of colonies present within the petri plate) (H. pylori ATCC 43504; Table I, final drug concentration 0.1 ng/ml): (+++) (+++=200+ colonies) | growth (amount of colonies present within the petri plate) (H. pylori ATCC 43504; Table I, final drug concentration 1 ng/ml): (+++) (+++=200+ colonies) | growth (amount of colonies present within the petri plate) (H. pylori ATCC 43504; Table I, final drug concentration 10 ng/ml): (+++) (+++=200+ colonies) | growth (amount of colonies present within the petri plate) (H. pylori ATCC 43504; Table I, final drug concentration 100 ng/ml): (++) (++=50-200 colonies) | growth (amount of colonies present within the petri plate) (H. pylori ATCC 43504; Table I, final drug concentration 1 μg/ml): No growth | growth (amount of colonies present within the petri plate) (H. pylori ATCC 43504; Table I, final drug concentration 10 μg/ml): No growth | growth (amount of colonies present within the petri plate) (H. pylori ATCC 43504; Table II, urease positive, final drug concentration 1 ng/ml): (+++) (+++=200+ colonies) | growth (amount of colonies present within the petri plate) (H. pylori ATCC 43504; Table II, urease positive, final drug concentration 10 ng/ml): (+++) (+++=200+ colonies) | growth (amount of colonies present within the petri plate) (H. pylori ATCC 43504; Table II, urease positive, final drug concentration 1 μg/ml): No growth | growth (amount of colonies present within the petri plate) (H. pylori ATCC 43504; Table II, urease positive, final drug concentration 10 μg/ml): No growth | growth (amount of colonies present within the petri plate) (H. pylori ATCC 43504; Table II, urease positive, final drug concentration 0.1 nglml): (+++) (+++=200+ colonies) | growth (amount of colonies present within the petri plate) (H. pylori ATCC 43504; Table IV, urease positive, final drug concentration 0.1 ng/ml): (+++) (+++=200+ colonies) | growth (amount of colonies present within the petri plate) (H. pylori ATCC 43504; Table IV, urease positive, final drug concentration 1 ng/ml): (+++) (+++=200+ colonies) | growth (amount of colonies present within the petri plate) (H. pylori ATCC 43504; Table IV, urease positive, final drug concentration 10 ng/ml): (+++) (+++=200+ colonies) | growth (amount of colonies present within the petri plate) (H. pylori ATCC 43504; Table IV, urease positive, final drug concentration 100 ng/ml): (+++) (+++=200+ colonies) | growth (amount of colonies present within the petri plate) (H. pylori ATCC 43504; Table IV, urease positive, final drug concentration 1 μg/ml): No growth | growth (amount of colonies present within the petri plate) (H. pylori ATCC 43504; Table IV, urease positive, final drug concentration 10 μg/ml): No growth | growth (amount of colonies present within the petri plate) (H. pylori ATCC 43504; Table V, in the presence of 10 mM urea, final drug concentration 0.1 ng/ml, Nigericin assay done in duplicate): (+++)^1 (+++=200+ colonies) | growth (amount of colonies present within the petri plate) (H. pylori ATCC 43504; Table V, in the presence of 10 mM urea, final drug concentration 1 ng/ml, Nigericin assay done in duplicate): (+++)^1 (+++=200+ colonies) | growth (amount of colonies present within the petri plate) (H. pylori ATCC 43504; Table V, in the presence of 10 mM urea, final drug concentration 10 ng/ml, Nigericin assay done in duplicate): (++)^1 (++=50-200 colonies) | growth (amount of colonies present within the petri plate) (H. pylori ATCC 43504; Table V, in the presence of 10 mM urea, final drug concentration 100 ng/ml, Nigericin assay done in duplicate): (+++)^1 (+++=200+ colonies) | growth (amount of colonies present within the petri plate) (H. pylori ATCC 43504; Table V, in the presence of 10 mM urea, final drug concentration 1 μg/ml, Nigericin assay done in duplicate): (±)^1 (±=0-20 colonies) | growth (amount of colonies present within the petri plate) (H. pylori ATCC 43504; Table V, in the presence of 10 mM urea, final drug concentration 10 μg/ml, Nigericin assay done in duplicate): No growth^1 | growth (amount of colonies present within the petri plate) (H. pylori ATCC 43504; Table VI, in the presence of 2.5 mM urea, final drug concentration 1 ng/ml): (+++) (+++=200+ colonies) | growth (amount of colonies present within the petri plate) (H. pylori ATCC 43504; Table VI, in the presence of 2.5 mM urea, final drug concentration 10 ng/ml): (+++) (+++=200+ colonies) | growth (amount of colonies present within the petri plate) (H. pylori ATCC 43504; Table VI, in the presence of 2.5 mM urea, final drug concentration 1 μg/ml): (±) (±=0-20 colonies) | growth (amount of colonies present within the petri plate) [1, 3]: (+++) (+++=200+ colonies) | growth (amount of colonies present within the petri plate) [1, 4]: (+++) (+++=200+ colonies) | growth (amount of colonies present within the petri plate) [1, 5]: (+++) (+++=200+ colonies) | growth (amount of colonies present within the petri plate) [1, 6]: No growth | growth (amount of colonies present within the petri plate) [1, 7]: No growth

CC[C@@H](C(=O)[C@@H](C)[C@@H](O)[C@H](C)[C@@H]1O[C@@H]([C@@H](CC)C(=O)O)CC[C@@H]1C)[C@H]1O[C@]2(C=C[C@@H](O)[C@]3(CC[C@@](C)([C@H]4CC[C@](O)(CC)[C@H](C)O4)O3)O2)[C@H](C)C[C@@H]1C [Salinomycin, salinomycin]
growth (amount of colonies present within the petri plate) (Staph ATCC 14775; Table XV, Non microaerophilic conditions, final drug concentration 10 ng/ml): (+++) (+++=200+ colonies) | growth (amount of colonies present within the petri plate) (Staph ATCC 14775; Table XV, Non microaerophilic conditions, final drug concentration 100 ng/ml): (+++) (+++=200+ colonies) | growth (amount of colonies present within the petri plate) (Staph ATCC 14775; Table XV, Non microaerophilic conditions, final drug concentration 1 μg/ml): (+++)^1 (+++=200+ colonies) | growth (amount of colonies present within the petri plate) (Staph ATCC 14775; Table XV, Non microaerophilic conditions, final drug concentration 10 μg/ml): No growth | MIC (H. pylori ATCC 43504; Helicobacter pylori, ATCC43504): 6.25 µg/mL (≈ 8.32 µM) | growth (amount of colonies present within the petri plate) (H. pylori ATCC 43504; Table VII, urease positive, final drug concentration 0.098 μg/ml): (+++) (+++=200+ colonies) | growth (amount of colonies present within the petri plate) (H. pylori ATCC 43504; Table VII, urease positive, final drug concentration 0.195 μg/ml): (+++) (+++=200+ colonies) | growth (amount of colonies present within the petri plate) (H. pylori ATCC 43504; Table VII, urease positive, final drug concentration 0.39 μg/ml): (+++) (+++=200+ colonies) | growth (amount of colonies present within the petri plate) (H. pylori ATCC 43504; Table VII, urease positive, final drug concentration 0.78 μg/ml): (+++) (+++=200+ colonies) | growth (amount of colonies present within the petri plate) (H. pylori ATCC 43504; Table VII, urease positive, final drug concentration 1.56 μg/ml): (+++) (+++=200+ colonies) | growth (amount of colonies present within the petri plate) [2, 3]: (+++) (+++=200+ colonies) | growth (amount of colonies present within the petri plate) ([2]; final drug concentration 1 ng/ml): (+++) (+++=200+ colonies) | growth (amount of colonies present within the petri plate) [2, 4]: (+++) (+++=200+ colonies) | growth (amount of colonies present within the petri plate) [2, 5]: (+++) (+++=200+ colonies) | growth (amount of colonies present within the petri plate) [2, 6]: (+++) (+++=200+ colonies) | growth (amount of colonies present within the petri plate) [2, 7]: No growth
